Test system: U937 tumor cells
Test: In vitro antitumoral assay: inhibition of 3H-thymidine incorporation by U937 tumor cells, macrophage/U937 ratio 1/1
Type: cell-based, human
Settings: mean and standard error of 8 preparations
Method: The “cytotoxic activity” corresponds to the one measured as the percentage of inhibition of 3-H thymidine incorporation by target tumoral cells, particularly U937 cells, and a test for this measure is hereafter given:
Differentiated macrophages were seeded into 96-well flat microtiter plates at 10^4 macrophages/well in 0.2 ml. After 2 h incubation at 37° C. in 5% CO2 humidified atmosphere, the medium was removed and replaced by IMDM+5% hu AB serum containing or not 250 U/ml of rhu IFNγ; plates were further incubated overnight. After washing, 10^4 U937 tumor cells in 0.2 ml fresh medium (IMDM+10% FCS) were added to each well. After 24 h contact, 0.1 μCi of tritiated thymidine was added to each well for a further 24 h incubation.
The cells were collected and the determination of incorporated radioactivity on the fiber glass filters was carried out by β counting. The percentage inhibition of thymidine incorporation by tumor cells could be calculated according to the formula: [formula]
The cytotoxic activity is determined with U937 cells, the ratio between macrophages and U937 being of 1/1. […]
The cells were collected and the determination of incorporated radioactivity on the fiber glass filters was carried out by β counting. The % inhibition of thymidine incorporation by tumor cells was calculated according the formula: [formula]

+GM-CSF was tested. Which “cytotoxic activity +IFN-γ: % inhibition of 3H-thymidine incorporation by U937 cells” value (after activation with 250 U/ml IFN-γ) did it give?
The value was 76 +/− 5%.

What about the “cytotoxic activity −IFN-γ: % inhibition of 3H-thymidine incorporation by U937 cells” value (without IFN-γ activation (spontaneous)) of the same substance?
Its value is 44 +/− 5%.

From US6821516B1, “Macrophages, process for preparing the same and their use as active substances of pharmaceutical compositions” (I.D.M. Immuno-Designed Molecules, priority 1993, dated 2004)
